Measured values from publication PMC12292521, “Discovery of a Potent Antimicrobial Peptide Through Rational Design: A New Frontier in Pathogen Control” (Biomolecules, 2025).
In brackets after ≈: the same amount, converted by molar mass. Like-named read-outs stand apart in the source and are kept apart here. Peptide text beside a SMILES is read from it.

Experiments:
[1] = tested on: Monophasic Salmonella Typhimurium; format: cell-based, monophasic variant of Salmonella Typhimurium; details: Monophasic murium, 6 h
Description: (§1) To assess the antimicrobial potential of the designed peptide, different strains of Gram-negative and Gram-positive bacteria were evaluated. Pseudomonas aeruginosa was an ATCC (27853) strain, while Escherichia coli, Listeria monocytogenes, Staphylococcus aureus, Campylobacter jejuni, Salmonella Typhimurium, the monophasic variant of Salmonella Typhimurium and Salmonella Napoli were isolated from food products by the Laboratory of Microbiological Food Control—Department of Food Microbiology of the Istituto Zooprofilattico Sperimentale del Mezzogiorno (IZSM) in Portici (Naples, Italy).
(§2) In accordance with the Clinical & Laboratory Standards Institute guidelines (CLSI, 2015), the Minimum Bactericidal Concentration (MBC), defined as the minimum concentration of peptide required to kill 99.9% of the tested bacterial suspension within a defined time interval, was determined. L. monocytogenes, E. coli, S. aureus, S. Typhimurium, monophasic variant of S. Typhimurium, S. Napoli, and P. aeruginosa were cultured at 37 °C in buffered peptone water (Thermo Fisher, Milan, Italy), while C. jejuni was cultured in Bolton Broth (Oxoid, Madrid, Spain). The bacterial suspension was collected and then diluted in fresh broth to a final concentration of 1.0 × 10^3 or 1.0 × 10^5 colony-forming units (CFUs)/mL. […] Samples containing only cell suspension and DMSO were used as controls. […]

Campylobacter jejuni = format: cell-based; details: 6 h
Description: as §1, §2

Salmonella Napoli = format: cell-based; details: 6 h
Description: as §1, §2

[2] = tested on: Acinetobacter baumannii (CRAB); format: cell-based
Description: (§3) Therefore, the minimum inhibitory concentration (MIC) and MBC were evaluated. […] Subsequently, the antibiofilm activity of the peptide was tested according to Festa et al.. Specifically, two different concentrations of peptide were used, corresponding to ½ and ¼ of the estimated MIC value, which guarantee the optimal bacterial growth conditions necessary to allow biofilm production. Biofilm production (%) was calculated based on Optical Density (measured at 630 nm) outputs, compared to the control group.

[3] = tested on: Enterococcus faecium (VREfm); format: cell-based; details: broth microdilution, 96-well, RKW 1-75 μM
Description: as §3

[4] = tested on: Staphylococcus aureus (MRSA); format: cell-based; details: for MIC: broth microdilution, 96-well, RKW 1-75 μM
Description: as §3

S. aureus (MRSA) biofilm = assay: Antibiofilm activity (crystal violet); format: cell-based, Staphylococcus aureus; details: RKW at ½ and ¼ MIC (25 and 12.5 μM); OD 630 nm vs control; three independent experiments; ANOVA p < 0.01; greatest inhibition at ¼ MIC
Description: as §3
To compare the percentages of biofilm production across different samples, a one-way analysis of variance (ANOVA) was conducted using Prism v. 10.0 (GraphPad, Graph-Pad Software, La Jolla, CA, USA). Significant differences between sample pairs were identified with Tukey’s post hoc test (p < 0.05).

[5] = inoculum 5 × 10^3 CFU/mL (3 Log)
[6] = inoculum 5 × 10^5 CFU/mL (5 Log)

## CC[C@H](C)[C@H](NC(=O)[C@H](Cc1c[nH]c2ccccc12)NC(=O)[C@H](CCCCN)NC(=O)[C@@H](N)CCCNC(=N)N)C(=O)N[C@@H](CC(C)C)C(=O)N[C@@H](CCCCN)C(=O)N[C@@H](Cc1c[nH]c2ccccc12)C(=O)N[C@@H](CC(C)C)C(=O)N[C@@H](CCCNC(=N)N)C(=O)N[C@H](C(=O)N[C@@H](Cc1c[nH]c2ccccc12)C(=O)N[C@@H](CCCCN)C(=O)N[C@@H](CCCCN)C(N)=O)[C@@H](C)O [RKW] (H-RKWILKWLRTWKK-NH2; N-terminus assumed)
[1]
  MBC: 20 µM (≈ 36.8 µg/mL)
Campylobacter jejuni
  MBC: 80 µM (≈ 147 µg/mL)
Salmonella Napoli
  MBC: 20 µM (≈ 36.8 µg/mL)
[2]
  MBC: 50 µM (≈ 92.1 µg/mL)
[3]; [5]
  MIC: 20 µM (≈ 36.8 µg/mL)
[3]; [6]
  MIC: 20 µM (≈ 36.8 µg/mL)
[4]
  MBC: 50 µM (≈ 92.1 µg/mL)
[4]; [5]
  MIC: 50 µM (≈ 92.1 µg/mL)
[4]; [6]
  MIC: 50 µM (≈ 92.1 µg/mL)
S. aureus (MRSA) biofilm
  Biofilm production: significantly inhibited the biofilm production
